The values below come from patent EP0103381B1, “Substituted anthra(1,9-cd)pyrazol-6(2H)-ones” (WARNER-LAMBERT COMPANY, priority 1982, dated 1984).

The assay relates to HCT-8 (human colon adenocarcinoma) cells. In words: in vitro activity against human colon adenocarcinoma (HCT-8), cell count. Type of assay: cell-based. The following applies: Homo sapiens; HCT-8 cells, 60-65 hrs with compound; molar quantity of drug required to kill 50% of the tumor cells; read-out: ID50 Molar. The method, boiled down:
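HCT-8 cells seeded at ~30,000 cells/ml in RPMI 1640 + 10% FCS, grown 48 hrs at 37°C, then exposed to compound 60-65 hrs. Lysed cells counted by Coulter counter; activity as percent of controls, reported as ID50 (molar quantity killing 50% of cells).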

As for `CCN(CC)CCn1nc2c3c(c(NCCNCCO)ccc31)C(=O)c1c(O)ccc(O)c1-2` [Example 28, 2-[2-(Diethylamino)ethyl]-7,10-dihydroxy-5-[[2-[(2-hydroxyethyl)amino]ethyl]amino]anthra[1,9-cd]pyrazol-6(2H)-one], the IC50 was 270 nM.
